Results published in PubChem BioAssay (NCI).
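Method: 48-hour compound exposure of cells in 96-well plates, five concentrations, linear interpolation of endpoints. GI50 marks 50% less growth. TGI is the concentration that stops growth completely.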

Assays:
Assay in all cases: NCI-60 cell line screen, 48 h
IGROV1 ovarian = system: IGROV1 ovarian
SK-MEL-28 melanoma = system: SK-MEL-28 melanoma
U251 CNS = system: U251 CNS
SR leukemia = system: SR leukemia
COLO 205 colon = system: COLO 205 colon
SF-539 CNS = system: SF-539 CNS
HCT-15 colon = system: HCT-15 colon
SN12C renal = system: SN12C renal
CAKI-1 renal = system: CAKI-1 renal
DU-145 prostate = system: DU-145 prostate
SNB-19 CNS = system: SNB-19 CNS
HCC-2998 colon = system: HCC-2998 colon
SW-620 colon = system: SW-620 colon
K-562 leukemia = system: K-562 leukemia
MDA-MB-231 breast = system: MDA-MB-231 breast
MDA-MB-435 = system: MDA-MB-435
UACC-62 melanoma = system: UACC-62 melanoma
EKVX NSCLC = system: EKVX NSCLC
SK-MEL-2 melanoma = system: SK-MEL-2 melanoma
SK-MEL-5 melanoma = system: SK-MEL-5 melanoma
OVCAR-8 ovarian = system: OVCAR-8 ovarian
786-0 renal = system: 786-0 renal
MOLT-4 leukemia = system: MOLT-4 leukemia
OVCAR-5 ovarian = system: OVCAR-5 ovarian
MCF7 breast = system: MCF7 breast
SF-268 CNS = system: SF-268 CNS
TK-10 renal = system: TK-10 renal
SNB-75 CNS = system: SNB-75 CNS
HOP-92 NSCLC = system: HOP-92 NSCLC
RXF 393 renal = system: RXF 393 renal
PC-3 prostate = system: PC-3 prostate
UACC-257 melanoma = system: UACC-257 melanoma
CCRF-CEM leukemia = system: CCRF-CEM leukemia
NCI-H23 lung = system: NCI-H23 lung
HS 578T breast = system: HS 578T breast
ACHN renal = system: ACHN renal
OVCAR-4 ovarian = system: OVCAR-4 ovarian
T-47D breast = system: T-47D breast
HT29 colon = system: HT29 colon
LOX IMVI melanoma = system: LOX IMVI melanoma
M14 melanoma = system: M14 melanoma
BT-549 breast = system: BT-549 breast
SK-OV-3 ovarian = system: SK-OV-3 ovarian
UO-31 renal = system: UO-31 renal
NCI-H226 lung = system: NCI-H226 lung
HL-60(TB) leukemia = system: HL-60(TB) leukemia
NCI-H460 lung = system: NCI-H460 lung
NCI-H522 lung = system: NCI-H522 lung
HCT-116 colon = system: HCT-116 colon
NCI/ADR-RES ovarian = system: NCI/ADR-RES ovarian
A549 NSCLC = system: A549 NSCLC
MALME-3M melanoma = system: MALME-3M melanoma
SF-295 CNS = system: SF-295 CNS
OVCAR-3 ovarian = system: OVCAR-3 ovarian
HOP-62 NSCLC = system: HOP-62 NSCLC
RPMI-8226 leukemia = system: RPMI-8226 leukemia
A498 renal = system: A498 renal
KM12 colon = system: KM12 colon

## O=C1c2ccc3c4c5ccc(c24)C(=O)N1CCCOCCCCOCCCNCc1ccc(cc1)CNCCCOCCCCOCCCN(C3=O)C5=O
IGROV1 ovarian
  GI50: 791 nM
  TGI: 1600 nM
SK-MEL-28 melanoma
  GI50: 894 nM
  TGI: 1630 nM
U251 CNS
  GI50: 832 nM
  TGI: 1640 nM
SR leukemia
  GI50: 621 nM
  TGI: 2620 nM
COLO 205 colon
  GI50: 531 nM
  TGI: 1260 nM
SF-539 CNS
  GI50: 871 nM
  TGI: 1640 nM
HCT-15 colon
  GI50: 926 nM
  TGI: 1970 nM
SN12C renal
  GI50: 816 nM
  TGI: 1530 nM
CAKI-1 renal
  GI50: 834 nM
  TGI: 1710 nM
DU-145 prostate
  GI50: 886 nM
  TGI: 1730 nM
SNB-19 CNS
  GI50: 991 nM
  TGI: 2270 nM
HCC-2998 colon
  GI50: 928 nM
  TGI: 1680 nM
SW-620 colon
  GI50: 964 nM
  TGI: 2060 nM
K-562 leukemia
  GI50: 987 nM
  TGI: 2400 nM
MDA-MB-231 breast
  GI50: 1070 nM
  TGI: 2980 nM
MDA-MB-435
  GI50: 873 nM
  TGI: 1590 nM
UACC-62 melanoma
  GI50: 889 nM
  TGI: 1630 nM
EKVX NSCLC
  GI50: 824 nM
  TGI: 1630 nM
SK-MEL-2 melanoma
  GI50: 861 nM
  TGI: 1730 nM
SK-MEL-5 melanoma
  GI50: 855 nM
  TGI: 1550 nM
OVCAR-8 ovarian
  GI50: 1060 nM
  TGI: 2740 nM
786-0 renal
  GI50: 956 nM
  TGI: 2020 nM
MOLT-4 leukemia
  GI50: 981 nM
  TGI: 2620 nM
OVCAR-5 ovarian
  GI50: 944 nM
  TGI: 1810 nM
MCF7 breast
  GI50: 686 nM
  TGI: 1600 nM
SF-268 CNS
  GI50: 972 nM
  TGI: 2430 nM
TK-10 renal
  GI50: 1030 nM
  TGI: 2420 nM
SNB-75 CNS
  GI50: 724 nM
  TGI: 1480 nM
HOP-92 NSCLC
  GI50: 782 nM
  TGI: 2080 nM
RXF 393 renal
  GI50: 764 nM
  TGI: 1570 nM
PC-3 prostate
  GI50: 904 nM
  TGI: 2760 nM
UACC-257 melanoma
  GI50: 989 nM
  TGI: 1980 nM
CCRF-CEM leukemia
  GI50: 889 nM
  TGI: 2840 nM
NCI-H23 lung
  GI50: 930 nM
  TGI: 1810 nM
HS 578T breast
  GI50: 1400 nM
  TGI: 5320 nM
ACHN renal
  GI50: 859 nM
  TGI: 1570 nM
OVCAR-4 ovarian
  GI50: 567 nM
  TGI: 1180 nM
T-47D breast
  GI50: 997 nM
  TGI: 2280 nM
HT29 colon
  GI50: 956 nM
  TGI: 2360 nM
LOX IMVI melanoma
  GI50: 797 nM
  TGI: 1520 nM
M14 melanoma
  GI50: 923 nM
  TGI: 1750 nM
BT-549 breast
  GI50: 1620 nM
  TGI: 4870 nM
SK-OV-3 ovarian
  GI50: 1180 nM
  TGI: 2660 nM
UO-31 renal
  GI50: 1100 nM
  TGI: 5120 nM
NCI-H226 lung
  GI50: 1770 nM
  TGI: 6580 nM
HL-60(TB) leukemia
  GI50: 1010 nM
  TGI: 2030 nM
NCI-H460 lung
  GI50: 972 nM
  TGI: 2000 nM
NCI-H522 lung
  GI50: 854 nM
  TGI: 1790 nM
HCT-116 colon
  GI50: 888 nM
  TGI: 1900 nM
NCI/ADR-RES ovarian
  GI50: 6120 nM
  TGI: 17500 nM
A549 NSCLC
  GI50: 1010 nM
  TGI: 2070 nM
MALME-3M melanoma
  GI50: 628 nM
  TGI: 1300 nM
SF-295 CNS
  GI50: 881 nM
  TGI: 1690 nM
OVCAR-3 ovarian
  GI50: 766 nM
  TGI: 1790 nM
HOP-62 NSCLC
  GI50: 1150 nM
  TGI: 3310 nM
RPMI-8226 leukemia
  GI50: 930 nM
  TGI: 2490 nM
A498 renal
  GI50: 7890 nM
  TGI: 15000 nM
KM12 colon
  GI50: 896 nM
  TGI: 2060 nM
